Data reported in US11795151B2, “Benzotriazole compound” (MIYOSHI OIL & FAT CO., LTD., priority 2017, dated 2023).

Tests used:
Assay type in all cases: physicochemical
[1] = Evaluation of UV absorption performance (2): absorbance spectra in chloroform; settings: 100 μM, 10-mm quartz cell
Description: Compounds 11 to 28 were diluted with 100 μM of chloroform and placed in a 10-mm quartz cell, and the absorbance spectra were measured using an ultraviolet-visible spectrophotometer (V-550, manufactured by JASCO Corporation)(FIGS. 11,12,14 to 29).
The absorption peak (maximum absorption wavelength: max) and absorbance in the wavelength range of 350 to 390 nm were read from the absorption spectra of Compounds 11 to 28, and a molar extinction coefficient (maximum molar extinction coefficient: εmax) of the peak was obtained by the following formula (Table 7): Molar extinction coefficient:εmax(L/(mol·cm))=A:Absorbance/[c:Mol concentration(mol/L)×1:Cell optical length(cm)] [Equation 3]
In addition, from the absorption spectra of Compounds 11 to 28, assuming that an intersection of a long-wavelength side absorption spectrum in the absorption peak at 350 to 390 nm and a baseline (a line where the slope of the absorption spectrum at […] is zero) is set as a peak end (for example: FIG. 1), the absolute value of the slope of the absorption peak on the long-wavelength side in the wavelength region at 350 to 390 nm was obtained by the following equation (Table 8): |Slope of absorption peak on long wavelength side in wavelength region of 350 to 390n|=|(Absorbance at peak end−Absorbance at absorption peak in wavelength region of 350 to 390 nm)/(Absorption wavelength at peak end−Wave length at absorption peak in wavelength region of 350 to 390 nm)| [Equation 4]

[2] = Evaluation of UV absorption performance (1): absorbance spectra in chloroform; settings: 100 μM, 10-mm quartz cell
Description: Compounds 1 to 12 were diluted with 100 μM of chloroform, placed in a 10-mm quartz cell, and the absorbance spectra were measured using an ultraviolet-visible spectrophotometer (V-550, manufactured by JASCO Corporation)(FIGS. 1 to 12).
The absorption peak (maximum absorption wavelength: λmax) and absorbance in the wavelength range of 350 to 390 nm were read from the absorption spectra of Compounds 1 to 12, and the molar extinction coefficient of the peak (maximum molar extinction coefficient: εmax) was obtained by the following equation (able 1). Molar extinction coefficient:εmax(L/(mol·cm))=A:Absorbance/[c:Mol concentration(mol/L)×1:Cell optical length(cm)] [Equation 1]
In addition, from the absorption spectra of Compounds 1 to 12, assuming that an intersection of a long-wavelength side absorption spectrum in the absorption peak at 350 to 390 nm and a baseline (a line where the slope of the absorption spectrum at 380 to 500 nm is zero) is set as a […] (for example: FIG. 1), the absolute value of the slope of the absorption peak on the long-wavelength side in the wavelength region at 350 to 390 nm was obtained by the following equation: |Slope of absorption peak on long wavelength side in wavelength region of 350 to 390 nm|=|(Absorbance at peak end−Absorbance at absorption peak in wavelength region of 350 to 390 nm)/(Absorption wavelength at peak end−Wave length at absorption peak in wavelength region of 350 to 390 nm)| [Equation 2]

[3] = Maximum solubility in various monomers; settings: room temperature (20 to 30° C.), 4 hours

| Structure (SMILES) | Absorbance at absoprtion peak in wavelength region of 350 to 390 nm [1] | Absorbance at peak end [1] | Absorption wavelength at peak end [1] [nm] | Molar extinction coefficient at peak (maximum molar extinction coefficient: εmax) [1] [L/mol/cm] | Wave length at absorption peak in wavelength region of 350 to 390 nm (maximum absorption wavelength: λmax) [1] [nm] | Absorbance at absorption peak in wavelength region of 350 to 390 nm [2] | Absorbance at peak end [2] | Absorption wavelength at peak end [2] [nm] | Molar extinction coefficient at peak (maximum molar extinction coefficient: εmax) [2] [L/mol/cm] | Wave length at absorption peak in wavelength region of 350 to 390 nm (maximum absorption wavelength: λmax) [2] [nm] | Maximum solubility ([3]; Dimethylacrylamide) [wt %] | Maximum solubility ([3]; Hexadiene) [wt %] | Maximum solubility ([3]; Methyl (meth)acrylate) [wt %] | Maximum solubility ([3]; Styrene) [wt %] | Maximum solubility ([3]; Vinyl acetate) [wt %] |
| --- | --- | --- | --- | --- | --- | --- | --- | --- | --- | --- | --- | --- | --- | --- | --- |
| Cc1cc(-n2nc3ccc(Sc4ccc(NC(=O)c5ccc6ccccc6c5)cc4)cc3n2)c(O)c(C(C)(C)C)c1 [Compound 24] | 2.36 | 0.02 | 424 | 23600 | 368 |  |  |  |  |  |  |  |  |  |  |
| C=C(C)C(=O)Oc1ccc(Sc2ccc3nn(-c4cc(C)cc(C(C)(C)C)c4O)nc3c2)cc1 [Compound 5] |  |  |  |  |  | 2.29 | 0.01022 | 422 | 21800 | 367 | 15 | 5 | 15 | 25 | 13 |
| CC(=O)Oc1ccc(Sc2ccc3nn(-c4cc(C)cc(C(C)(C)C)c4O)nc3c2)cc1 [Compound 17] | 2.24 | 0.01899 | 422 | 22400 | 366 |  |  |  |  |  |  |  |  |  |  |
| CCCCCCCCCCCCCCCCCC(=O)Oc1ccc(Sc2ccc3nn(-c4cc(C)cc(C(C)(C)C)c4O)nc3c2)cc1 [Compound 18] | 2.22 | 0.02575 | 420 | 22200 | 366 |  |  |  |  |  |  |  |  |  |  |
| Cc1cc(-n2nc3ccc(SCCOC(=O)c4ccccc4)cc3n2)c(O)c(C(C)(C)C)c1 [Compound 14] | 2.21 | 0.02594 | 419 | 22100 | 365 |  |  |  |  |  |  |  |  |  |  |
| CCCCCCCCCCCCCCCCCC(=O)OCCCCCCSc1ccc2nn(-c3cc(C)cc(C(C)(C)C)c3O)nc2c1 [Compound 16] | 2.22 | 0.01846 | 420 | 22200 | 367 |  |  |  |  |  |  |  |  |  |  |
| CC(=O)OCCSc1ccc2nn(-c3cc(C)cc(C(C)(C)C)c3O)nc2c1 [Compound 13] | 2.22 | 0.0302 | 419 | 22200 | 365 |  |  |  |  |  |  |  |  |  |  |
| Cc1cc(-n2nc3ccc(Sc4ccc(NC(=O)c5ccccc5)cc4)cc3n2)c(O)c(C(C)(C)C)c1 [Compound 23] | 2.34 | 0.01418 | 424 | 23400 | 369 |  |  |  |  |  |  |  |  |  |  |
| CCCCCCCCCCCCC/C=C/C(=O)OCCCCCCSc1ccc2nn(-c3cc(C)cc(C(C)(C)C)c3O)nc2c1 [Compound 9] |  |  |  |  |  | 2.14 | 0.00702 | 422 | 21100 | 368 |  |  |  |  |  |
| CCNC(=O)Nc1ccc(Sc2ccc3nn(-c4cc(C)cc(C(C)(C)C)c4O)nc3c2)cc1 [Compound 25] | 2.27 | 0.0174 | 424 | 22700 | 370 |  |  |  |  |  |  |  |  |  |  |
| Cc1cc(-n2nc3ccc(Sc4ccc(NC(=O)Nc5ccccc5)cc4)cc3n2)c(O)c(C(C)(C)C)c1 [Compound 27] | 2.39 | 0.01868 | 425 | 23900 | 369 |  |  |  |  |  |  |  |  |  |  |
| COc1ccc(NC(=O)Nc2ccc(Sc3ccc4nn(-c5cc(C)cc(C(C)(C)C)c5O)nc4c3)cc2)cc1 [Compound 28] | 2.26 | 0.01853 | 423 | 22600 | 370 |  |  |  |  |  |  |  |  |  |  |
| CCCCCCCCCCCCCCCCCC(=O)Nc1ccc(Sc2ccc3nn(-c4cc(C)cc(C(C)(C)C)c4O)nc3c2)cc1 [Compound 22] | 2.23 | 0.01382 | 424 | 22300 | 369 |  |  |  |  |  |  |  |  |  |  |
| CC(=O)Nc1ccc(Sc2ccc3nn(-c4cc(C)cc(C(C)(C)C)c4O)nc3c2)cc1 [Compound 21] | 2.24 | 0.00955 | 424 | 22400 | 369 |  |  |  |  |  |  |  |  |  |  |
| Cc1cc(-n2nc3ccc(Sc4ccc(OC(=O)c5ccccc5)cc4)cc3n2)c(O)c(C(C)(C)C)c1 [Compound 19] | 2.29 | 0.02244 | 422 | 22900 | 366 |  |  |  |  |  |  |  |  |  |  |
| CCCCCCCCCCCCCCCCCCNC(=O)OCCCCCCSc1ccc2nn(-c3cc(C)cc(C(C)(C)C)c3O)nc2c1 [Compound 20] | 2.20 | 0.00489 | 423 | 22000 | 368 |  |  |  |  |  |  |  |  |  |  |
| CCCCCCCCCCCCCCCCCCNC(=O)Nc1ccc(Sc2ccc3nn(-c4cc(C)cc(C(C)(C)C)c4O)nc3c2)cc1 [Compound 26] | 2.17 | 0.1501 | 419 | 21700 | 368 |  |  |  |  |  |  |  |  |  |  |
| C=C(C)C(=O)OCCCCCCOc1ccc(Sc2ccc3nn(-c4cc(C)cc(C(C)(C)C)c4O)nc3c2)cc1 [Compound 6] |  |  |  |  |  | 2.27 | 0.01184 | 424 | 21600 | 369 | 15 | 10 | 20 | 25 | 15 |
